Data on three molecules can be found in patent US10280218B2, “Antibodies binding to BMP4, and uses thereof” (ACADEMISCH MEDISCH CENTRUM, priority 2014, dated 2019).

What all share (test): BMP activity luciferase reporter assay (BRE-luciferase, ID1 promoter) in C2C12 cells
A general note: Reporter assays use an easily measured gene product as a stand-in for the process of interest.

Experiment [1] has as its system human BMP4. It counts as cell-based, mouse. To be noted: LDN 0.5 μM, DMH1 0.2 μM; for specificity / selectivity across BMP2, 4, 5, 6, 7, 9, 10, 12: VHH 500 ng/ml. As to the method: (§1) One of the most studied BMP target genes is the Inhibitor of Differentiation 1 (ID1). This is an immediate early gene that is activated by binding of the phosphorylated SMADs to its promoter region (López-Rovira et al., 2002). Thus, we employed the BMP-responsive C2C12 cells, which are stably transfected with the BRE-luciferase vector containing the BMP-Responsive-Element (the mouse ID1 promoter) cloned into the pGL3 luciferase vector (Zilberberg 2007). […] C2C12 cells were treated with the different BMPs with or without our VHHs or human Noggin at a concentration of 5 μg/ml. Luciferase activity was measured after 16 hours incubation. Most of the transcriptional data is in concordance with the results obtained with the phosphorylation of SMAD1/5/8.
(§2) C2C12 cells were plated in 96-well plates at 5×10^3 cells/well and cells were allowed to attach overnight. 100 μl of DMEM with 0.1% BSA were added in each well. VHH antibodies and human Fc-Noggin at the indicated concentrations were added at the same time. Wells with unstimulated cells were added as controls. Cells were treated in triplicate with the BMPs at the indicated concentrations for 16 hours. Luciferase activity was measured by adding 100 μl of luciferase substrate solution from the Bright-Glo™ Luciferase Assay System (Promega Benelux, Leiden, The Netherlands). After 3 minutes of incubation, luciferase activity was measured with Synergy HT Multi-Mode Microplate Reader (Biotek, Winooski, Vt., United States). Luciferase values were normalized to background activity (activity of wells with no cells) and represented as ratio to the activity of BMP-stimulated cells.
(§3) To evaluate the extent of this increase in potency, the IC50 of the different VHHs were determined in a dose-dependent inhibition assay in C2C12 cells (FIG. 25). C2C12 cells were plated in 96-well plates at 5×10^3 cells/well and cells were allowed to attach overnight 100 μl of DMEM with 0.1% BSA were added in each well. VHH antibodies were added at the indicated concentrations at the same time as 5 ng/ml BMP4 (FIG. 25A-B, D) or 50 ng/ml of BMP2 (FIG. 25C,D). Luciferase activity was measured after 16 hours. Values are represented as ratio to the activity of BMP-stimulated cells. […] However, its effects were more striking for BMP2 rather than BMP4 inhibition. […] The IC50 values for BMP4 inhibition observed in our VHHs are considerably lower than those observed for anti-BMP4 commercially available from R&D (Katagiri et al 1994) and those described in WO_2008/030611.
(§4) C2C12 cells were cultured in 96-well plates at 5×10^3 cells/well. After overnight attachment cells were stimulated with 10 ng/ml hBMP4 (Cat No. 314-BP-020; R&D Systems), 50 ng/ml hBMP2 (Cat No. 355-BM-010; R&D Systems), 200 ng/ml hBMP5 (Cat No. 615-BMC-020; R&D Systems), 50 ng/ml hBMP6 (Cat No. 506-BP-020; R&D Systems), 200 ng/ml hBMP7 (Cat No. 354-BP-010; R&D Systems), 25 ng/ml hBMP9 (Cat No. 3209-BP-010; R&D Systems), 25 ng/ml hBMP10 (Cat No. 2926-BP-025; R&D Systems), 50 ng/ml hBMP12 (Cat No. 779-G7-010; R&D Systems) and with or without VHH antibodies: C4C4 and C8C8 at 500 ng/ml; natural antagonist: mNoggin (Cat No. 1967-NG-025; R&D Systems), hNoggin (Cat No. 6057-NG; R&D Systems) and mGremlin (cat#956-GR-050; R&D Systems) at 500 ng/ml; chemical antagonist: 0.5 μM LDN-193189 (Cat No. 11802; Cayman Chemical) and 0.2 μM DMH1 (Cat No. 57146; Selleckchem).
(§5) VHH efficacy was evaluated by stimulating cells with 10 ng/ml of hBMP4 and 50 ng/ml of hBMP2, with and without increase concentrations (from 0.1-10 μg/ml) of VHH and anti-BMP4 antibodies: clone 66119, clone 3H2, clone M912262, clone PA354-16.1.1, Clone EPR6211, and anti-BMP4 (ab39973). […] Unstimulated cells were used as controls and wells with no cells used to normalize the background activity. […]

For experiment [2], the system named is BMP10. It counts as cell-based, human. To be noted: 25 ng/ml hBMP10, 16 h; LDN 0.5 μM; DMH1 0.2 μM. On the procedure: (§6) C2C12 cells were plated in 96-well plates when they reached confluency, cells were treated in triplicate with 25 ng/ml of BMP9, 50 ng/ml of BMP10 or 50 ng/ml of BMP12 (all from R&D Systems), for 16 hours. VHHs or Noggin were added at a concentration of 5 ug/ml. C2C12 cells or HEK293 were plated on 12-well plates and starved for 5 hours, before stimulation with 2 ng/ml of TGF-β (R&D Systems) or 100 ng/ml Activin-A (R&D Systems), respectively. VHHs at the indicated concentrations were added at the same time. After 1 hour cells were lysed, and protein isolation and SDS-PAGE separation were performed as described previously. For protein detection the following antibodies were used: antiphospho-SMAD2 at 1:1000 (Cell Signaling).
C2C12 cells were cultured in 96-well plates at 5×10^3 cells/well. […]

Experiment [3] relates to BMP9. In kind it is cell-based, mouse. Particulars: 25 ng/ml hBMP9, 16 h; LDN 0.5 μM; DMH1 0.2 μM. As to the method:
as §6, §4

For experiment [4], the target named is T1, BMP2 (Homo sapiens, UniProt P12643).
T1 sequence (P12643 283-396): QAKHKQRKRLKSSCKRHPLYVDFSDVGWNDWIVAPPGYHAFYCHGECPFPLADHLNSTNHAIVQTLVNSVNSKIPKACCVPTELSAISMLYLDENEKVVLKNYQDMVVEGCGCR
It counts as cell-based, mouse. Particulars: 50 ng/ml hBMP2, 16 h; VHH, Noggin, Gremlin 500 ng/ml; LDN 0.5 μM; DMH1 0.2 μM. On the procedure: as §1, §2, §3, §4, §5

The target of experiment [5] is T2, BMP5 (Homo sapiens, UniProt P22003).
T2 sequence (P22003 317-454): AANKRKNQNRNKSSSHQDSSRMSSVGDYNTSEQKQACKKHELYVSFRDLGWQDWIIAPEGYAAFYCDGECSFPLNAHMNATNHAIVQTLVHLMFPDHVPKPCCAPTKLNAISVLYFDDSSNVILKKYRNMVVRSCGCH
It counts as cell-based, mouse. The arrangement: purchased R&D Systems 615-BMC-020. To be noted: 200 ng/ml hBMP5, 16 h; VHH, Noggin, Gremlin 500 ng/ml; LDN 0.5 μM; DMH1 0.2 μM. On the procedure: as §1
as §2, with “Cells were treated in triplicate with the BMPs at the indicated concentrations for 16 hours.” left out, “Luciferase values were normalized to background activity (activity of wells with no cells) and represented as ratio to the activity of BMP-stimulated cells.” left out

`CC(C)Oc1ccc(-c2cnc3c(-c4ccnc5ccccc45)cnn3c2)cc1` [DMH1]: in experiment [1], the “specificity / selectivity across BMP2, 4, 5, 6, 7, 9, 10, 12” value was “even less selective than Noggin”. The “inhibition of BMP-10-derived signals, comparison of inhibitors” value in experiment [2] is reported as “shown to inhibit”. Further, in experiment [3], the “inhibition of BMP-9-derived signals, comparison of inhibitors” value was “shown to inhibit”.
`c1ccc2c(-c3cnn4cc(-c5ccc(N6CCNCC6)cc5)cnc34)ccnc2c1` [LDN, LDN-193189]: the “specificity / selectivity across BMP2, 4, 5, 6, 7, 9, 10, 12” value in experiment [1] is “even less selective than Noggin”. The “inhibition of BMP-10-derived signals, comparison of inhibitors” value in experiment [2] is given as “shown to inhibit”. Besides, in experiment [3], the “inhibition of BMP-9-derived signals, comparison of inhibitors” value is “shown to inhibit”.

B1: Gremlin: natural BMP antagonist (R&D Systems) (protein)
chain: KKKGSQGAIPPPDKAQHNDSEQTQSPPQPGSRTRGRGQGRGTAMPGEEVLESSQEALHVTERKYLKRDWCKTQPLKQTIHEEGCNSRTIINRFCYGQCNSFYIPRHIRKEEGSFQSCSFCKPKKFTTMMVTLNCPELQPPTKKKRVTRVKQCRCISIDLD
As to B1, in experiment [4], the “inhibition of BMP-2 signals, comparison of inhibitors” value is on record as “greatly inhibit”. Moreover, the “inhibition of BMP4-derived signals, comparison of inhibitors” value in experiment [1] (10 ng/ml hBMP4, 16 h, VHH, Noggin, Gremlin 500 ng/ml) is recorded as “greatly inhibit”. Moreover, the “inhibition of BMP5 signals, comparison of inhibitors” value in experiment [5] is listed as “greatly inhibit”.
